Data taken from patent US20220183972A1, “NANOEMULSION HYDROPHOBIC […]” (VERTOSA INC., priority 2018, published 2022).

Test: Emulsion droplet size by DLS, Polyglyceryl-4 main surfactants
Type: physicochemical
Conditions: 1 g cannabinoid oil, 0.7 g olive oil, 2.5 g Polyglyceryl-4 surfactant, 1.5 g sunflower lecithin, 40 g water, 80% amplitude

First: Polyglyceryl-4 Caprate
Second: Polyglyceryl-4 Oleate
The “final emulsion droplet average size” value of the first is lower: 365 nm for the first, 506 nm for the second.

In the case of Polyglyceryl-4 Isostearate, the “final emulsion droplet average size” value is reported as 371 nm.

Test: not given
Conditions: Span surfactants, Example 10; cited from earlier work

Going from Span 120 to Span 40, the HLB rises from 4.7 to 6.7.

First: Span 80
Second: Span 60
The HLB of the first is lower: 4.3 for the first, 4.7 for the second.

Same assay, conditions: Table 1; cited from earlier work

Going from Vitamin E TPGS 200 to Vitamin E TPGS 2000, the HLB rises from 6.3 to 16.5.

Going from Vitamin E TPGS 300 to Tween 81, the HLB rises from 8.2 to 10.

Going from Polyglyceryl-6 oleate to Vitamin E TPGS 4000, the HLB rises from 9 to 18.1.

In the case of Polyglyceryl-6 Stearate, the HLB is given as 9.

Test: not given
Conditions: upon eating cannabis; cited from earlier work

For `CCCCCc1cc(O)c2c(c1)OC(C)(C)[C@@H]1CCC(C)=C[C@@H]21` [THC, Tetrahydrocannabinol], the THC absorbed is given as 8-15%.

Same assay, conditions: upon smoking cannabis; cited from earlier work

In the case of `CCCCCc1cc(O)c2c(c1)OC(C)(C)[C@@H]1CCC(C)=C[C@@H]21` [THC, Tetrahydrocannabinol], the “THC absorbed by lung” value is given as 2-45%.
